Experimental data as given in patent publication US8455640B2, “Process for statins and its pharmaceutically acceptable salts thereof” (MSN Laboratories Limited, priority 2006, dated 2013).

Assay: solubility of the calcium salt in aqueous methanol / methanol
Type: physicochemical

Question: Which “solubility in an aqueous methanol” value (calcium salt prepared by the present invention (calcium acetate as calcium source)) does the source give for CC(C)c1nc(N(C)S(C)(=O)=O)nc(-c2ccc(F)cc2)c1/C=C/[C@@H](O)C[C@@H](O)CC(=O)[O-].CC(C)c1nc(N(C)S(C)(=O)=O)nc(-c2ccc(F)cc2)c1/C=C/[C@@H](O)C[C@@H](O)CC(=O)[O-].[Ca+2] [formula (1a), rosuvastatin calcium] here?
Answer: The value was “freely soluble”.

Question: And the “solubility in an aqueous methanol” value (calcium salt prepared by the prior art process (U.S. Pat. No. 5,260,440; sodium chloride byproducts))?
Answer: Its value is “poor solubility”.
